Several values for one entry are separate records, joined by “and”; a condition that tells them apart may be missing. Identical values can stand only once.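 Five compound concentrations were applied to cells in 96-well plates for 48 hours; endpoints were derived by simple linear interpolation of the resulting dose-response curve. GI50 is the concentration that inhibits growth by half. Definition used: TGI = concentration required for complete inhibition of growth.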
Assays:
Test in all cases: NCI tumour cell line growth inhibition, 48 h
IGROV1 ovarian = test system: IGROV1 ovarian
HCT-116 colon = test system: HCT-116 colon
DLD-1 colon = test system: DLD-1 colon
M19-MEL melanoma = test system: M19-MEL melanoma
SF-295 CNS = test system: SF-295 CNS
P388/ADR leukemia = test system: P388/ADR leukemia
SK-MEL-2 melanoma = test system: SK-MEL-2 melanoma
DMS 114 small cell lung = test system: DMS 114 small cell lung
SN12K1 renal = test system: SN12K1 renal
HOP-18 NSCLC = test system: HOP-18 NSCLC
A549 NSCLC = test system: A549 NSCLC
UACC-62 melanoma = test system: UACC-62 melanoma
MOLT-4 leukemia = test system: MOLT-4 leukemia
MALME-3M melanoma = test system: MALME-3M melanoma
UO-31 renal = test system: UO-31 renal
HT29 colon = test system: HT29 colon
HCC-2998 colon = test system: HCC-2998 colon
CCRF-CEM leukemia = test system: CCRF-CEM leukemia
SK-OV-3 ovarian = test system: SK-OV-3 ovarian
NCI-H226 lung = test system: NCI-H226 lung
SK-MEL-5 melanoma = test system: SK-MEL-5 melanoma
SN12C renal = test system: SN12C renal
KM12 colon = test system: KM12 colon
SF-539 CNS = test system: SF-539 CNS
OVCAR-5 ovarian = test system: OVCAR-5 ovarian
SW-620 colon = test system: SW-620 colon
HOP-62 NSCLC = test system: HOP-62 NSCLC
COLO 205 colon = test system: COLO 205 colon
DMS 273 small cell lung = test system: DMS 273 small cell lung
SNB-78 CNS = test system: SNB-78 CNS
SF-268 CNS = test system: SF-268 CNS
OVCAR-3 ovarian = test system: OVCAR-3 ovarian
CAKI-1 renal = test system: CAKI-1 renal
UACC-257 melanoma = test system: UACC-257 melanoma
NCI/ADR-RES ovarian = test system: NCI/ADR-RES ovarian
A498 renal = test system: A498 renal
LOX IMVI melanoma = test system: LOX IMVI melanoma
RXF 393 renal = test system: RXF 393 renal
SNB-19 CNS = test system: SNB-19 CNS
HCT-15 colon = test system: HCT-15 colon
SNB-75 CNS = test system: SNB-75 CNS
P388 leukemia = test system: P388 leukemia
EKVX NSCLC = test system: EKVX NSCLC
HOP-92 NSCLC = test system: HOP-92 NSCLC
K-562 leukemia = test system: K-562 leukemia
XF 498 CNS = test system: XF 498 CNS
RPMI-8226 leukemia = test system: RPMI-8226 leukemia
MCF7 breast = test system: MCF7 breast
U251 CNS = test system: U251 CNS
OVCAR-4 ovarian = test system: OVCAR-4 ovarian
OVCAR-8 ovarian = test system: OVCAR-8 ovarian
KM20L2 colon = test system: KM20L2 colon
NCI-H23 lung = test system: NCI-H23 lung
SK-MEL-28 melanoma = test system: SK-MEL-28 melanoma
NCI-H460 lung = test system: NCI-H460 lung
NCI-H522 lung = test system: NCI-H522 lung
MDA-N = test system: MDA-N
LXFL 529 NSCLC = test system: LXFL 529 NSCLC

SMILES: COc1cc2cc3c4cc(OC)c(OC)cc4cc[n+]3cc2cc1OC
- TGI (IGROV1 ovarian): > 100 µM
- TGI (HCT-116 colon): > 100 µM
- TGI (DLD-1 colon): > 100 µM
- TGI (M19-MEL melanoma): > 100 µM
- TGI (SF-295 CNS): > 100 µM
- TGI (P388/ADR leukemia): > 100 µM
- TGI (SK-MEL-2 melanoma): > 100 µM
- TGI (DMS 114 small cell lung): 6.6 µM
- TGI (SN12K1 renal): > 100 µM
- TGI (HOP-18 NSCLC): > 100 µM
- TGI (A549 NSCLC): > 100 µM
- TGI (UACC-62 melanoma): > 100 µM
- TGI (MOLT-4 leukemia): > 96.8 µM
- TGI (MALME-3M melanoma): > 100 µM
- TGI (UO-31 renal): > 100 µM
- TGI (HT29 colon): > 100 µM
- TGI (HCC-2998 colon): > 100 µM
- TGI (CCRF-CEM leukemia): > 100 µM
- TGI (SK-OV-3 ovarian): > 100 µM
- TGI (NCI-H226 lung): > 100 µM
- TGI (SK-MEL-5 melanoma): > 100 µM
- TGI (SN12C renal): > 100 µM
- TGI (KM12 colon): > 100 µM
- TGI (SF-539 CNS): > 100 µM
- TGI (OVCAR-5 ovarian): > 100 µM
- TGI (SW-620 colon): > 100 µM
- TGI (HOP-62 NSCLC): > 100 µM
- TGI (COLO 205 colon): > 100 µM
- TGI (DMS 273 small cell lung): > 100 µM
- TGI (SNB-78 CNS): > 100 µM
- TGI (SF-268 CNS): > 100 µM
- TGI (OVCAR-3 ovarian): > 73.3 µM
- TGI (CAKI-1 renal): > 100 µM
- TGI (UACC-257 melanoma): > 100 µM
- TGI (NCI/ADR-RES ovarian): > 100 µM
- TGI (A498 renal): > 100 µM
- TGI (LOX IMVI melanoma): > 100 µM
- TGI (RXF 393 renal): > 100 µM
- TGI (SNB-19 CNS): > 100 µM
- TGI (HCT-15 colon): > 100 µM
- TGI (SNB-75 CNS): > 100 µM
- TGI (P388 leukemia): > 100 µM
- TGI (EKVX NSCLC): > 100 µM
- TGI (HOP-92 NSCLC): > 100 µM
- TGI (K-562 leukemia): > 100 µM
- TGI (XF 498 CNS): > 100 µM
- TGI (RPMI-8226 leukemia): > 100 µM
- TGI (MCF7 breast): > 31.6 µM
- TGI (U251 CNS): > 100 µM
- TGI (OVCAR-4 ovarian): > 100 µM
- TGI (OVCAR-8 ovarian): > 100 µM
- TGI (KM20L2 colon): > 100 µM
- TGI (NCI-H23 lung): > 100 µM
- TGI (SK-MEL-28 melanoma): > 100 µM
- TGI (NCI-H460 lung): > 100 µM
- TGI (NCI-H522 lung): > 100 µM

SMILES: CC(=O)O[C@H]1C(=O)[C@@]2(C)[C@H]([C@H](OC(=O)c3ccccc3)[C@]3(O)C[C@H](OC(=O)[C@H](O)[C@@H](NC(=O)c4ccccc4)c4ccccc4)C(C)=C1C3(C)C)[C@]1(OC(C)=O)CO[C@@H]1C[C@@H]2O
- GI50 (MDA-N): 0.0025 µM and 0.0231 µM
- GI50 (DLD-1 colon): 0.0551 µM
- TGI (DLD-1 colon): 24.4 µM and > 100 µM
- TGI (P388/ADR leukemia): 25 µM
- TGI (DMS 114 small cell lung): 0.0217 µM
- TGI (SN12K1 renal): 25 µM
- TGI (HOP-18 NSCLC): 25 µM
- TGI (A549 NSCLC): 25 µM and > 100 µM and 67.7 µM
- TGI (DMS 273 small cell lung): 3.68 µM
- GI50 (SNB-78 CNS): 0.087 µM
- TGI (SNB-78 CNS): 24.3 µM and 45.1 µM
- TGI (NCI/ADR-RES ovarian): 15.1 µM and > 100 µM and 37.5 µM
- GI50 (LXFL 529 NSCLC): 0.00356 µM
- TGI (LXFL 529 NSCLC): 55.2 µM
- TGI (P388 leukemia): 25 µM
- TGI (XF 498 CNS): 0.0355 µM
- TGI (MCF7 breast): 15.1 µM and 88.4 µM and 56.1 µM
- TGI (SK-MEL-28 melanoma): 25 µM and > 71 µM

Source: PubChem BioAssay (NCI)
